Measured values: PubChem BioAssay AID1869 (NMMLSC, 2009)
Active and inactive are the calls of the source. How the calls were made is not given here.

Target: Regulator of G-protein signaling 8 (Homo sapiens) (UniProt P57771)
Test: compounds altering Galphao binding to RGS8 – biochemical, multiplex bead flow cytometry, dose response (AID 1869)
Conditions: bead-based flow cytometry RGS8-Galphao binding

Sequence of Regulator of G-protein signaling 8 (Homo sapiens) (P57771 whole entry, looked up): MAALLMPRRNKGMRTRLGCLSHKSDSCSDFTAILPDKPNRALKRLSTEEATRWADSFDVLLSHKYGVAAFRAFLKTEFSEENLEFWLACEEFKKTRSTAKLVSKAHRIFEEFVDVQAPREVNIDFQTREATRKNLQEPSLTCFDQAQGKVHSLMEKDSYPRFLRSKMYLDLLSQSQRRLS

`CC(C)Sc1nc2ccc(N3C(=O)C4CCCCC4C3=O)cc2s1` (stereo not drawn) was tested, and the EC50 was > 30 µM (inactive).
With `O=c1[nH]c(=S)n(Cc2ccco2)c(O)c1C=NCc1cccs1` the EC50 was > 30 µM (inactive).
With `O=C1CCCC2=C1C(c1cccs1)n1ncnc1N2` (stereo not drawn) the EC50 was > 30 µM (inactive).
`CCOC(=O)N=Nc1c(O)n(C)c2ccccc12` was tested, and the EC50 was > 30 µM (inactive).
In the case of `CCOC(=O)C1=C(C)NC(C)=C(C(=O)OCCNC(=O)c2cccnc2)C1c1cccc([N+](=O)[O-])c1` (stereo not drawn), the EC50 is reported as > 30 µM (inactive).
With `COc1ccc(Br)cc1/C=N/Nc1cccc(C(=O)O)c1` the EC50 was > 30 µM (inactive).
For `CCOC(=O)/C(C(=O)Nc1ccccc1Cl)=C1/NC(C)(C)Cc2ccccc21`, the EC50 was > 30 µM (inactive).

First: CN(C)[C@@H]1C(=O)C(C(=O)NCN2CCCC2)=C(O)[C@@]2(O)C(=O)C3=C(O)c4c(O)cccc4[C@@](C)(O)C3CC12 (stereo partly drawn)
Second: NS(=O)(=O)c1ccc(N/N=C/c2ccc(O)c(O)c2O)c([N+](=O)[O-])c1
The EC50 of the first is 4.2-fold higher: 7.06 µM for the first, 1.69 µM for the second.

Same assay, conditions: bead-based flow cytometry RGS8-Galphao binding; measured here: Ki for RGS8-Galphao binding

Going from `CCNc1ccc2noc3c2c1C(=O)c1ccccc1-3` to `COCCCNC(=O)c1ccc2c3c(onc13)-c1ccccc1C2=O`, the Ki falls from 20.3 µM to 3.52 µM (5.8-fold).

`O=c1c2ccccc2sn1-c1ccc(S(=O)(=O)N2CCCC2)cc1` and `Cc1ccc(-n2sc3ccccc3c2=O)cc1S(=O)(=O)N1CCCCC1` are within 1.5-fold of each other in Ki: 8.61 µM for the first, 9.95 µM for the second.

First: CN1CCN(C2=C(Cl)C(=O)C(c3cnc(N4CCCCC4)s3)=C(Cl)C2=O)CC1
Second: O=C1C(Cl)=C(N2CCCCC2)C(=O)C(Cl)=C1c1cnc(N2CCCCC2)s1
The Ki of the first is 8.6-fold lower: 0.11 µM for the first, 0.95 µM for the second.

Going from `Cc1ccc(NC(=O)Cn2sc3nc(C)cc(C)c3c2=O)c(Cl)c1` to `Cc1cc(C)c2c(=O)n(CC(=O)Nc3ccc(Cl)cc3)sc2n1`, the Ki falls from 11.7 µM to 5.27 µM (2.2-fold).

Compared with `O=C(COc1ccccc1C(=O)N/N=C\c1ccc(O)c(O)c1)N/N=C/c1ccc(O)c(O)c1`, `CCN(CC)S(=O)(=O)c1cccc(C(=O)N/N=C/c2ccc(O)c(O)c2O)c1` is 1.5-fold higher in Ki: 2.49 µM for the first, 3.77 µM for the second.

Compared with `CN(C)[C@@H]1C(=O)C(C(=O)NCN2CCCC2)=C(O)[C@@]2(O)C(=O)C3=C(O)c4c(O)cccc4[C@@](C)(O)C3CC12` (stereo partly drawn), `Cc1cccc(N2CCN(C(=O)Cn3sc4nc(C)cc(C)c4c3=O)CC2C)c1` (stereo not drawn) is 2.2-fold higher in Ki: 5.85 µM for the first, 12.8 µM for the second. The first binds more tightly here.

`COC(=O)CCC(=O)Nc1sc(C)c(C)c1C(N)=O` and `CCOC(=O)c1sc(NC(=O)CSc2nnc(Cc3ccccc3)o2)c(C#N)c1C` are within 1.5-fold of each other in Ki: 4.93 µM for the first, 5.55 µM for the second.

`CC(NC(=O)c1sc2cc([N+](=O)[O-])ccc2c1Cl)C(C)(C)C` (stereo not drawn) and `O=C(NCCCN1CCOCC1)c1sc2cc([N+](=O)[O-])ccc2c1Cl` are within 1.5-fold of each other in Ki: 1.63 µM for the first, 2.16 µM for the second.

First: O=C(O[C@@H]1OC2COC(=O)c3cc(O)c(O)c(O)c3-c3c(cc(O)c(O)c3O)C(=O)O[C@@H]([C@H]1O)[C@@H]2O)c1cc(O)c(O)c(O)c1
Second: O=C1OCC2OC(O)C(O)C(O)C2OC(=O)c2cc(O)c(O)c(O)c2-c2c(O)c(O)c3oc(=O)c4c(c(O)c(O)c5oc(=O)c2c3c54)-c2c1cc(O)c(O)c2O (stereo not drawn)
The Ki of the first is 2.9-fold higher: 1.45 µM for the first, 0.5 µM for the second.

`CC(=O)N(O)CCCCCNC(=O)CCC(=O)N(O)CCCCCNC(=O)CCC(=O)N(O)CCCCCN` and `CCC(=O)NC1=C(Cl)C(=O)C(NC(=O)CC)=C(Cl)C1=O` are within 1.5-fold of each other in Ki: 1.89 µM for the first, 2.83 µM for the second.

`CC1(C)OC(=O)C(=Cc2ccc(-c3ccc(S(N)(=O)=O)cc3)o2)C(=O)O1` and `CN(C)S(=O)(=O)c1cccc(-n2sc3ccccc3c2=O)c1` are within 1.5-fold of each other in Ki: 3.98 µM for the first, 3.31 µM for the second.

`O=c1c2ccccc2sn1-c1cc(S(=O)(=O)N2CCOCC2)ccc1N1CCCC1` and `O=c1c2ccccc2sn1-c1cc(S(=O)(=O)N2CCOCC2)ccc1N1CCOCC1` are within 1.5-fold of each other in Ki: 3.05 µM for the first, 4.21 µM for the second.

Going from `CCN1/C(=C/C(C)=C/c2sc3ccccc3[n+]2CC)Sc2ccccc21` to `CCN1/C(=C/C=C/C=C/c2sc3ccccc3[n+]2CC)Sc2ccccc21`, the Ki falls from 7.38 µM to 4.71 µM (1.6-fold).

Compared with `CCN=c1scc(C)n1/N=C/c1ccc(O)c(O)c1O`, `CN=c1scc(C)n1/N=C/c1ccc(O)c(O)c1O` is 2.7-fold lower in Ki: 19.6 µM for the first, 7.21 µM for the second. The second binds more tightly here.

First: O=C1CCC(=O)N(O)CCCCCNC(=O)CCC(=O)N(O)CCCCCNC(=O)CCC(=O)N(O)CCCCCN1
Second: CN(C)c1ncc(C2=C(Cl)C(=O)C(N3CCCC3)=C(Cl)C2=O)s1
The Ki of the first is 1.5-fold higher: 1.7 µM for the first, 1.11 µM for the second. The second binds more tightly here.

`COc1ccc(C2=CC(=O)C=CC2=O)cc1` and `O=c1c2ccccc2sn1-c1ccccc1` are within 1.5-fold of each other in Ki: 6.01 µM for the first, 5.06 µM for the second.

Going from `Cc1cc(C)c2c(=O)n(CC(=O)Nc3cccc(F)c3)sc2n1` to `COc1ccc(OC)c(CCNC(=O)Cn2sc3nc(C)cc(C)c3c2=O)c1`, the Ki falls from 6.53 µM to 3.85 µM (1.7-fold). The second binds more tightly here.

`Cc1ccccc1-n1sc2cc(F)ccc2c1=O` and `COc1ccccc1-n1c(-c2cc(-c3ccco3)[nH]n2)n[nH]c1=S` are within 1.5-fold of each other in Ki: 9.64 µM for the first, 6.97 µM for the second.

Going from `O=C(OCC1O[C@@H](OC(=O)c2cc(O)c(O)c(O)c2)[C@@H](OC(=O)c2cc(O)c(O)c(O)c2)[C@@H](OC(=O)c2cc(O)c(O)c(O)c2)[C@@H]1OC(=O)c1cc(O)c(O)c(O)c1)c1cc(O)c(O)c(O)c1` (stereo partly drawn) to `O=C(O)C[C@@H]1C(=O)O[C@@H]2C(COC(=O)c3cc(O)c(O)c(O)c3)O[C@@H](OC(=O)c3cc(O)c(O)c(O)c3)[C@@H](OC(=O)c3cc(O)c(O)c4c3[C@H]1[C@H](O)C(=O)O4)[C@H]2OC(=O)c1cc(O)c(O)c(O)c1` (stereo partly drawn), the Ki falls from 1.05 µM to 0.68 µM (1.5-fold).

First: O=[N+]([O-])c1ccc(Sc2cccc[n+]2[O-])c2nonc12
Second: Nc1cccnc1Sc1ccc([N+](=O)[O-])cn1
The Ki of the first is 5.4-fold lower: 2.54 µM for the first, 13.7 µM for the second. The first binds more tightly here.

Going from `CCC(=O)NC(c1ccc(C)cc1)c1cc([N+](=O)[O-])c2cccnc2c1O` (stereo not drawn) to `NS(=O)(=O)c1ccc(N/N=C/c2ccc(O)c(O)c2O)c([N+](=O)[O-])c1`, the Ki falls from 13.7 µM to 1.4 µM (9.8-fold). The second binds more tightly here.

Going from `Cc1[nH]n(-c2ccccc2)c(=S)c1C=NCCCN=Cc1c(C)[nH]n(-c2ccccc2)c1=S` to `Cc1[nH]n(-c2ccccc2)c(=S)c1C=Nc1cccc([N+](=O)[O-])c1`, the Ki falls from 4.25 µM to 1.65 µM (2.6-fold). The second binds more tightly here.

`CCc1c(C(=O)Nc2ccccc2)c(C)[nH]c(=S)c1C#N` and `Nc1c(C(=O)NCC2CCCO2)sc2nc3c(c(-c4ccco4)c12)CC/C3=C\c1ccco1` (stereo not drawn) are within 1.5-fold of each other in Ki: 7.87 µM for the first, 6.07 µM for the second.

`Cc1cc(Cl)ccc1N=c1ssnc1Cl` and `O=C(Cc1csc(N2CCOCC2)n1)N/N=C/c1ccc(O)c(O)c1O` are within 1.5-fold of each other in Ki: 11.9 µM for the first, 13.8 µM for the second.

`CCOC(=O)C1CCCN(C(=O)Cn2sc3nc(C)cc(C)c3c2=O)C1` (stereo not drawn) gave a Ki of 4.49 µM.
